Data set [1] can be described thus: Hygroscopicity (water absorption, European Pharmacopoeia 7.0, chapter 01/2008:51100). Conditions: non-hygroscopic = less than 0.1% (w/w) of water absorption after 24 h exposure to 25° C./80% RH. It is filed as physicochemical. On the procedure:
As used herein the term non-hygroscopic in relation to crystalline Elafibranor refers to less than 0.1% (w/w) of water absorption after 24 h exposure to 25° C./80% RH, determined according to European Pharmacopoeia 7.0, chapter 01/2008:51100. Water can be for example atmospheric water.

A short description of data set [2]: Thermodynamic (polymorphic) stability: conversion to other solid state forms, measured by XRPD. It is filed as physicochemical. Conditions: after exposure to conditions of up to 25° C./100% RH for at least 1 month, as measured by XRPD; stable = less than 20% conversion. On the procedure: The crystalline Elafibranor as described above in (a)-(f) may be anhydrous. The crystalline Elafibranor may be substantially free of other solid state forms of Elafibranor. […] In some embodiments, the conversion is 1%-20%, 1%-10% or 1%-5%.
Melting peak of crystalline form I of Elafibranor is in the range of about 154° C. and about 164° C., for example about 158° C. and about 160° C., preferably at about 159° C. as measured by DSC. […] Thermodynamic stability in relation to crystalline Elafibranor form I refers to less than 20%, less than 10%, less than 5%, less than 2%, less than 1%, or less than 0.5% conversion of crystalline Elafibranor form I to any other solid state form of Elafibranor after exposure of form I to conditions of up to 25° C./100% RH for at least 1 month, as measured by XRPD. In some embodiments, the conversion is 1%-20%, 1%-10% or 1%-5%.
Thermodynamic stability in relation to crystalline Elafibranor form II refers to less than 20%, 10%, 5%, 2%, 1%, or 0.5% conversion of crystalline Elafibranor form II to any other solid state form of Elafibranor after exposure of form II to conditions of up to 25° C./100% RH for at least 1 month, as measured by XRPD. In some embodiments, the conversion is 1%-20%, 1%-10% or 1%-5%.
Sample after being powdered in a mortar and pestle is applied directly on a silicon plate holder. […]

The results in this text go back to patent publication US20200283381A1, “SOLID STATE FORMS OF ELAFIBRANOR” (TEVA PHARMACEUTICALS INTERNATIONAL GMBH, priority 2017, published 2020).

As for `CSc1ccc(C(=O)/C=C/c2cc(C)c(OC(C)(C)C(=O)O)c(C)c2)cc1` [form I, 2-(2,6-dimethyl-4-{3-[4-(methylsulfanyl)phenyl]-3-oxoprop-1-en-1-yl}phenoxy)-2-methylpropanoic acid], in data set [1], the hygroscopicity entry is on record as “non-hygroscopic”. In data set [2], the “thermodynamic stability (conversion to any other solid state form of Elafibranor)” value is given as “thermodynamically stable”.
